Publication PMC12527977, “Discovery of a novel tetrapeptide as glucose homeostasis modulator with bifunctionalities of targeting DPP‐IV and microbiota” (iMeta, 2025)
Like-named read-outs stand apart in the source and are kept apart here. Where a SMILES comes first, the peptide text is derived from it.

Key:
[1] = test system: porcine pepsase and trypsase; assay: Simulated digestive stability of peptides (pepsase then trypsase); format: in vitro ADME; details: in words; 5.0 mg/mL peptide, pepsase 5000 U/mL pH 3.0 37 °C 2 h, then trypsase 100 U/mL pH 7.0 37 °C 2 h, LC-MS
Method: The in vitro digestibility of the peptides was determined according to the method described by Ohanenye et al. with some modifications. Briefly, 5.0 mg/mL peptides were mixed with 5000 U/mL porcine pepsase (pH 3.0). The mixture was incubated with continuous shaking in a water bath at 37 ℃ for 2 h. Then, the mixture was adjusted to pH 7.0, and a final concentration of 100 U/mL trypsase was added, followed by continuous shaking at 37 ℃ for another 2 h. After digestion, the enzyme was inactivated, and the mixture was incubated in a water bath (100 ℃) for 20 min. Subsequently, the mixture was centrifuged at 6000 rpm for 20 min, after which the supernatants were collected for further analysis. The concentrations of peptides in the digestions and TPH were determined via AB SCIEX QTrap 6600+ (AB Sciex, Framingham, Massachusetts).

DPP-IV [2] = target: T1, DPP-IV (Homo sapiens, UniProt P27487); assay: DPP-IV inhibition in iPSC-induced intestinal organoids (supernatant, DPP-IV-Glo kit); format: cell-based; design: endogenous in cells; host or cells: iPSC-induced intestinal organoids; details: Fig 1R, 24 h, read-out: Inhibitory effect on DPP-IV; for inhibition at 100 µg/mL: VAMP 100 μg/mL; for inhibition at 200 µg/mL: VAMP 200 μg/mL; for inhibition at 500 µg/mL: VAMP 500 μg/mL
Text: iPSC-induced intestinal organoids were established according to the manufacturer’s instructions (STEMdiff^TM Intestinal Organoid kit).
Target sequence in this assay (P27487 whole entry): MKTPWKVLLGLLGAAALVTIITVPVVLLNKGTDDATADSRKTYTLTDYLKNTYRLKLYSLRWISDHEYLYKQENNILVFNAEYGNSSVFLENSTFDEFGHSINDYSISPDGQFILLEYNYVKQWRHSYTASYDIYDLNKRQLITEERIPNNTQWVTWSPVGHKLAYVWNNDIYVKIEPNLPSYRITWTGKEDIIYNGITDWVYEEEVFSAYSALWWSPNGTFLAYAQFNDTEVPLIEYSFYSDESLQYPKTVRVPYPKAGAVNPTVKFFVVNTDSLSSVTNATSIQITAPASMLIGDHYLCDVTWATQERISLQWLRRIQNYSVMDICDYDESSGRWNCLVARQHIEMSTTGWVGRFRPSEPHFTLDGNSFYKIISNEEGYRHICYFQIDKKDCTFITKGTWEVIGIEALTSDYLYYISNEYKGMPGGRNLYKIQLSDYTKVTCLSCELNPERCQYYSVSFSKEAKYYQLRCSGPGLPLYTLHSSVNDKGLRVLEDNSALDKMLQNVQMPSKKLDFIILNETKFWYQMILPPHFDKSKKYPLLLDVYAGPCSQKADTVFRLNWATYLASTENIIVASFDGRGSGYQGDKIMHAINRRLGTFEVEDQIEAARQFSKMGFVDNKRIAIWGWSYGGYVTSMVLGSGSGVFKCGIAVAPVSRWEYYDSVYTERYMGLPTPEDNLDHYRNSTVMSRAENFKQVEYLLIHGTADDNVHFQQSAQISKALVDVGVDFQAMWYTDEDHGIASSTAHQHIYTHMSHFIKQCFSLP

DPP-IV [3] = target: T1, DPP-IV; assay: DPP-IV inhibitory activity of peptides (DPP-IV-Glo Protease Assay Kit); format: biochemical; design: purchased QiZheng Biotech (Shanghai, China) IBDPP0901; details: for DPP-IV inhibitory activity: DPP-IV-Glo Protease Assay Kit, control = 0, sheet S2F, in % (unit assumed)
Target sequence in this assay (P27487 whole entry): as above

DPP-IV [4] = target: T1, DPP-IV; assay: Surface plasmon resonance (Biacore 8K, CM5 chip, 25 °C); format: binding; design: purchased QiZheng Biotech (Shanghai, China) IBDPP0901; details: SPR, Table S3; read-out: KD values
in vitro = in vitro ADME; details: cells or culture medium, VAMP (%) remaining
Text: (§1) The levels of VAMP at different time points were quantified by targeted metabolomics.

[5] = test system: faeces-derived bacterial community; assay: in vitro; format: in vitro ADME
Text: as §1

[6] = Blood pharmacokinetics of VAMP, 10 mg/kg i.v. or p.o.; format: in vivo; details: mouse, po
Method: FIGURE 2 VAMP inhibits intestinal dipeptidyl peptidase IV (DPP‐IV) and increases the abundance of A. muciniphila. (A) The experimental scheme for (B–O) is shown, n = 6 mice/group. HFD‐fed mice were treated with PBS (vehicle group) or VAMP (50 mg/kg, VAMP group) for 8 weeks by oral gavage. (B) The body weight change, (C) FBG level, (D) intestinal active GLP‐1 levels, (E) plasma active GLP‐1 levels, (F) OGTT curve, (G) AUC of the OGTT, and (H) HOMA‐IR index were evaluated. (I) Intestinal permeability was measured by plasma fluorescence intensity after gavage with FITC‐dextran 4000. (J) The plasma levels of LPS, (K) TNF‐α, and (L) IL‐1β were determined. (M) Carnoy‐fixed colonic tissue sections were stained with Alcian blue/periodic acid‐Schiff. Scale bars, 100 µm. […] (O) The relative expression of Tjp1, Ocln, Cldn1, Cldn3, Cldn4, Cldn5, and Muc2 mRNAs in colonic tissue was determined. (P) The blood pharmacokinetics of 10 mg/kg VAMP administered by injection (i.v.) or gavage (p.o.) over time were evaluated. (Q) The tissue distribution of VAMP at the time of peak plasma concentration (30 min) after the administration of 10 mg/kg VAMP by gavage was determined (n = 4). […] (U) The change in bacterial abundance at the species level after VAMP treatment was determined via random forest analysis. […]
We first determined the VAMP metabolic kinetics in model mice.

Compound: CSCC[C@H](NC(=O)[C@H](C)NC(=O)[C@@H](N)C(C)C)C(=O)N1CCC[C@H]1C(=O)O [VAMP] (H-VAMP-OH)
- Resistance to simulated gastric pepsase and trypsase digestion [1]: readily resistant
- inhibition at 100 µg/mL (DPP-IV [2]; replicate 1): 72.5%
- inhibition at 100 µg/mL (DPP-IV [2]; replicate 2): 69.3%
- inhibition at 100 µg/mL (DPP-IV [2]; replicate 3): 50.4%
- inhibition at 200 µg/mL (DPP-IV [2]; replicate 1): 82.5%
- inhibition at 200 µg/mL (DPP-IV [2]; replicate 2): 80.3%
- inhibition at 200 µg/mL (DPP-IV [2]; replicate 3): 84.2%
- inhibition at 500 µg/mL (DPP-IV [2]; replicate 1): 92.1%
- inhibition at 500 µg/mL (DPP-IV [2]; replicate 2): 89.1%
- inhibition at 500 µg/mL (DPP-IV [2]; replicate 3): 84.8%
- inhibition at 1 µg/mL (DPP-IV [3]): 50.7%
- inhibition at 20 µg/mL (DPP-IV [3]): 52.1%
- inhibition at 50 µg/mL (DPP-IV [3]): 68.9%
- inhibition at 100 µg/mL (DPP-IV [3]): 77.6%
- inhibition at 200 µg/mL (DPP-IV [3]): 81.5%
- DPP-IV inhibitory activity (DPP-IV [3]; replicate 1): 68.9829
- DPP-IV inhibitory activity (DPP-IV [3]; replicate 2): 67.7707
- DPP-IV inhibitory activity (DPP-IV [3]; replicate 3): 61.9665
- IC50 (DPP-IV [3]; Table S3, read-out: IC50): 1 µM
- Kd (DPP-IV [4]): 6.89 µM
- remaining at 3 h, 100 μM (in vitro; 3 h): 98.5%
- remaining at 6 h, 100 μM (in vitro; 6 h): 84.6%
- remaining at 12 h, 100 μM (in vitro; 12 h): 51.7%
- remaining at 36 h, 100 μM (in vitro; 36 h): 2.1%
- remaining at 48 h, 100 μM (in vitro; 48 h): 0%
- Degradation of VAMP in faeces-derived microbial community culture [5]: degraded by gut microbiota
- bioavailability ([6]; blood, mice, 10 mg/kg p.o. vs i.v., printed in picture Fig 2P): 10.5%
- Tmax ([6]; plasma, 10 mg/kg by gavage, read-out: Time of peak plasma concentration (converted)): 30 min
